The record followed here is ChEMBL document CHEMBL4823262, “Discovery of a Vitamin D Receptor-Silent Vitamin D Derivative That Impairs Sterol Regulatory Element-Binding Protein In Vivo” (J Med Chem, 2021).

Calls of active or inactive are those of the source. No cut-off for these calls is given here.

In series [1] the target is T1, Vitamin D3 receptor (Homo sapiens, UniProt P11473).
T1 sequence (P11473 whole entry): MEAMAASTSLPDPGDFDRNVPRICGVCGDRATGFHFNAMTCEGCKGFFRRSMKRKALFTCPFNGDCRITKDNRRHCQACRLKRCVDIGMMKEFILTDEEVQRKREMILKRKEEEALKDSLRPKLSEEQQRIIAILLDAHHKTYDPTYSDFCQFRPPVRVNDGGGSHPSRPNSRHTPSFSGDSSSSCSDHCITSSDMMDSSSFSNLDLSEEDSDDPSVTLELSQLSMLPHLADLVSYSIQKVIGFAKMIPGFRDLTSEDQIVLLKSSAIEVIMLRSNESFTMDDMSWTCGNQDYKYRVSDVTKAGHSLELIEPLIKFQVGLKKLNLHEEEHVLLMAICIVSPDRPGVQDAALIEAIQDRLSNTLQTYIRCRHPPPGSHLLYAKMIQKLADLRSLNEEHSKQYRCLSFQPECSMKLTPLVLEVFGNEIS
Kind of series: Agonist activity at VDR (unknown origin) expressed in CHO-K1 cells at 5 uM by luciferase reporter assay. Type of series: cell-based. The settings on record: cho-k1, 5 µM. Background: A reporter such as luciferase makes a cellular process visible.

For series [2], the species on record is Mus musculus. The settings on record: Liver, dose 10.0 mg/kg, time 4.0 day.
The species named for series [3] is Mus musculus. The following applies: Liver, dose 10.0 mg/kg, time 4.0 day. The source holds these as a separate data set.
The nature of series [4]: Effect on serum calcium level in mouse assessed as increase in calcium level at 10 mg/kg, ip administered once daily for 4 days […]. In kind it is ADME, organism-based. The settings on record: in vivo, 96 h, time 4 day.
Series [5] addresses T2, Sterol regulatory element-binding protein 1 (Homo sapiens, UniProt P36956).
T2 sequence (P36956 whole entry): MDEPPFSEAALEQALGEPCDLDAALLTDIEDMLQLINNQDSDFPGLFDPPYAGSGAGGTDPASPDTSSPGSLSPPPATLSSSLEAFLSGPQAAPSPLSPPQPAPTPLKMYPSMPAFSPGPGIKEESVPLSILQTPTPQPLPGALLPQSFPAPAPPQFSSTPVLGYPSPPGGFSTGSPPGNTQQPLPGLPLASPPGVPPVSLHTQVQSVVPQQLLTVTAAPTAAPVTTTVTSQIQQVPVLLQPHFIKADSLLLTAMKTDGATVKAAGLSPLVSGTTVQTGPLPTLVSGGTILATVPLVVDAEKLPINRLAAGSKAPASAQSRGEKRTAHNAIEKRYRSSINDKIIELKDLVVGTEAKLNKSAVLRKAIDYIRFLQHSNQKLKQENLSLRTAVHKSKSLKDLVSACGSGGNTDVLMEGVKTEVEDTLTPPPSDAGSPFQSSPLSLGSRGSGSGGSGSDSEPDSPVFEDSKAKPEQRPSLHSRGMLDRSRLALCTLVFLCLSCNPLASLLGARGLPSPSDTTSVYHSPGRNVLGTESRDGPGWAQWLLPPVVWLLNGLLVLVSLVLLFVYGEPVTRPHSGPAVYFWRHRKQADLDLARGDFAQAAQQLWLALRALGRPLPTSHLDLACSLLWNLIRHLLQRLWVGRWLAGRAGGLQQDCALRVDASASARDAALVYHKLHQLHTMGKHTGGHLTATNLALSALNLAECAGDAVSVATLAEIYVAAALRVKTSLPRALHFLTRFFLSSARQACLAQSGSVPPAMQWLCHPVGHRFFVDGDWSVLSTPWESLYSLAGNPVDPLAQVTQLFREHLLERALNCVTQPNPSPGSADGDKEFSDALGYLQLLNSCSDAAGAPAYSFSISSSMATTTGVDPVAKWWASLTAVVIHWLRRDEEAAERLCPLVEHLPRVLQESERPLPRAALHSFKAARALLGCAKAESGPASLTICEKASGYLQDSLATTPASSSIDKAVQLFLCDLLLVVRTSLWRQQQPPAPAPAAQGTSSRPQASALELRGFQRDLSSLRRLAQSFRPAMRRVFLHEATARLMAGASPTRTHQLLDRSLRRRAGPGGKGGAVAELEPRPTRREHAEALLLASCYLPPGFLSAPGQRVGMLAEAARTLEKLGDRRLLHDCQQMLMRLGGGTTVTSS
Description: Inhibition of SREBP (unknown origin) expressed in CHO-K1 cells by luciferase reporter assay. In kind it is cell-based.

Series [6] is described as follows: Toxicity in ob/ob mouse assessed as increase in weight at 10 mg/kg, ip administered 5 times per week for 4 weeks. The following applies: in vivo, 672 h. In kind it is organism-based.
The nature of series [7]: Toxicity in ob/ob mouse assessed as sick at 10 mg/kg, ip administered 5 times per week for 4 weeks. In kind it is organism-based. The following applies: in vivo, 672 h.
Series [8] relates to CHO. Kind of series: Cytotoxicity against Chinese hamster CHO cells by beta-galactosidase reporter gene assay. Type of series: cell-based, Cricetulus griseus.
Series [9] deals with T3, Sterol regulatory element-binding protein cleavage-activating protein (Homo sapiens) (UniProt Q12770).
T3 sequence (whole entry): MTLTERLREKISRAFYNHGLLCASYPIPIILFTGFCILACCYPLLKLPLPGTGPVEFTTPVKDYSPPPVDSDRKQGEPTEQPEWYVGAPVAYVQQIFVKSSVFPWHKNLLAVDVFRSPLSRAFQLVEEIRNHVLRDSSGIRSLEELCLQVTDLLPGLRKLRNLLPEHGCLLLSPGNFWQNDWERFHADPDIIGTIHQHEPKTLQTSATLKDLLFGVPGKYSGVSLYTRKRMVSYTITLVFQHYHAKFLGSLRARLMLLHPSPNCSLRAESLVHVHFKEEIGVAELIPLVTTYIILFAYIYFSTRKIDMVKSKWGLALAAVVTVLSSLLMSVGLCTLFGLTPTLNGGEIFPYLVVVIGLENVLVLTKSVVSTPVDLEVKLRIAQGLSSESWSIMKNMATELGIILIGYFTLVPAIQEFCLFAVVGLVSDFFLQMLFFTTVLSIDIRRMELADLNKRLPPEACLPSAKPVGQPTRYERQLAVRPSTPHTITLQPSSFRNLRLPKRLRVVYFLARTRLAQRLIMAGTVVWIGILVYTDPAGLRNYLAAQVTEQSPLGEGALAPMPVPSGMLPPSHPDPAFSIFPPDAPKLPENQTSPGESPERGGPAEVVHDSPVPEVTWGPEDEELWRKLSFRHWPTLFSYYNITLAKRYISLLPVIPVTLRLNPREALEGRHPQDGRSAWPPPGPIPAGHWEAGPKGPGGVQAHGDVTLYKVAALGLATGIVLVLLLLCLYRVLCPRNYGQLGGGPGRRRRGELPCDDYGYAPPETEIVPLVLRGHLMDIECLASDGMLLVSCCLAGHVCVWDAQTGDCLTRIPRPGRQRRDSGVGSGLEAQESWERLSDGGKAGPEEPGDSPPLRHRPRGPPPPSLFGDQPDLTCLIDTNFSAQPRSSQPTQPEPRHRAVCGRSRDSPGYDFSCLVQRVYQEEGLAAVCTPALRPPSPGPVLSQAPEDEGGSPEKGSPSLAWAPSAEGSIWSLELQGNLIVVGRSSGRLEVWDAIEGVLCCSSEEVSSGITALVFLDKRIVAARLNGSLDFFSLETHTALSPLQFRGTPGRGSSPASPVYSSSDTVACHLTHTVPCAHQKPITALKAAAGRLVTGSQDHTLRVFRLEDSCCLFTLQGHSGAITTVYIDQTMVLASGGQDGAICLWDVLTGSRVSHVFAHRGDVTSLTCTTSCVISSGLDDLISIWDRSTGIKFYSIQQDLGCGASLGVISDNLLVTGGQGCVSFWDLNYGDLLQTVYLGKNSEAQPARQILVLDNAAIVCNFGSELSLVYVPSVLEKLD
Kind of series: Inhibition of FLAG-tagged SCAP (unknown origin) expressed in CHO-K1 cells assessed as reduction in SCAP protein level at 5 uM after 24 hrs by Western blotting analysis. Type of series: cell-based. Background: Immunoblotting shows a protein as a band on a membrane.

Regarding `C[C@H](CCCC(C)(C)O)[C@H]1CC[C@H]2/C(=C/Cn3cc(-c4ccccn4)nn3)CCC[C@]12C`, the outcome in series [1] was Active.
As to `C[C@H](CCCC(O)(C(F)(F)F)C(F)(F)F)[C@H]1CC[C@H]2/C(=C/Cn3cc(-c4ccc(F)cc4)nn3)CCC[C@]12C`, the Activity entry in series [1] was “Not Active”; in series [4] it was “Toxic”. In addition, the inhibition result in series [2] and in series [3] was “Active” each time.
In the case of `C[C@H](CCC(F)(F)C(C)(C)O)[C@H]1CC[C@H]2/C(=C/Cn3cc(-c4ccc(F)cc4)nn3)CCC[C@]12C`, in series [1], the Activity entry is listed as “Not Active”.
Regarding `C[C@H](CCCC(C)(C)O)[C@H]1CC[C@H]2/C(=C/Cn3ncnn3)CCC[C@]12C`, in [1], the outcome was Active.
On the same count and under the same terms, as for `C[C@H](CCCC(C)(C)O)[C@H]1CC[C@H]2/C(=C/Cn3cnnn3)CCC[C@]12C`, the entry is “Active”.
As to `CCCc1cc(-c2nc(-c3ccc(NS(C)(=O)=O)cc3)cs2)ccn1`, the IC50 in [5] is 700 nM.
Take `C[C@H](CCC(F)(F)C(C)(C)O)[C@H]1CC[C@H]2/C(=C/Cn3nnnc3-c3ccccc3)CCC[C@]12C`: the figures for the Activity result in series [6], in series [7] and in series [8] were “Toxic”, “Non-Toxic” and “Non-Toxic”, respectively.
Regarding `C=C1CC[C@H](O)C/C1=C/C=C1\CCC[C@]2(C)[C@@H]([C@H](C)CCCC(C)(C)O)CC[C@@H]12` [CALCIFEDIOL ANHYDROUS], the Activity entry in [7] and in series [4] was “Toxic” throughout. Moreover, the IC50 in series [5] was 1180 nM. The inhibition result in series [9] is “Active”.
As for `C[C@H](CCCC(C)(C)O)[C@H]1CC[C@H]2/C(=C/Cn3cc(CCCCO)nn3)CCC[C@]12C`, in series [1], the outcome was Active.
With `C[C@H](CCC(F)(F)C(C)(C)O)[C@H]1CC[C@H]2/C(=C/Cn3nnc(-c4ccc(F)cc4)n3)CCC[C@]12C`, the Activity entry in series [1] was “Not Active”; in series [8], “Non-Toxic”.
Take `C[C@H](CCC(F)(F)C(C)(C)O)[C@H]1CC[C@H]2/C(=C/Cn3nnnc3-c3ccc(F)cc3)CCC[C@]12C`: the Activity entry in series [1] is recorded as “Not Active”; in series [8] it was “Non-Toxic”.
For the compound `C[C@H](CCCC(O)(C(F)(F)F)C(F)(F)F)[C@H]1CC[C@H]2/C(=C/Cn3cc(-c4ccccc4)nn3)CCC[C@]12C`, the inhibition result in series [2] and in series [3] was “Active” throughout. Moreover, in [4], the Activity entry is given as “Toxic”.

As a reminder, the IC50 is the point on the concentration scale where inhibition reaches its midpoint.
